# In patent publication US12435059B2, “AMP-activated protein kinase inhibitors and methods of making and using the same” (The Regents of the University of Colorado, priority 2019, dated 2025):
# Read-outs that look alike come from different tables or passages of the source.
# Tests used:
# cellular AMPK = experiment: p-ACC(Ser79) ELISA in K562 cell lysates (glucose-free media, 2-DG); format: cell-based; conditions: K562, dose response, FIG. 2B
# Procedure: FIGS. 2A and 2B are a series of graphs showing the effects of compounds of the present disclosure on cellular levels of p-ACC(Ser79) in K562 cells. FIG. 2A Quantitative ELISA determination of p-ACC(Ser79) levels in K562 lysates (1.0 mg mL^−1 total protein) following growth in glucose-free media for 24 h, 2-DG (12 mM) treatment for 1 h followed by treatment with inhibitor compounds at 5.0 μM for 2 h. Relative p-ACC levels are reported as a percentage of levels resultant from DMSO control treatment. […] Cells were collected, washed with PBS and lysed on ice in lysis buffer containing 1% Triton X (Cell Signaling). Lysates were someated (1×5 seconds) and centrifuged for 10 minutes at 10,000 rpm and 4° C., and the protein concentration in supernatants was determined by Lowry assay. Lysates were diluted with ELISA PathScan® sample diluent to a final volume of 100 μL and protein concentration of 1.0 mg/ml prior to use. The concentration of p-ACC (Ser79) was determined using an enzyme-linked immunosorbent assay according to recommended protocol (Cell Signaling, ELISA PathScan® phospho-Acetyl-CoA Carboxylase (Ser79)) and expressed as a relative percentage of the DMSO control.
# The AMPK substrate ACC is used as a biomarker for the relative activity of AMPK, and the levels of p-ACC(Ser79) were measured by ELISA in the absence or presence of the compounds to determine the compounds' effects on cellular AMPK activity. The presence of total AMPK, p-AMPK, total ACC, and p-ACC was measured by Western blot in a panel of leukemic cell lines grown in glucoe competent or glucose-free media. […] The cell lysates from K562 cells grown in glucose-free media in the presence 2-DG and treated with compounds of the present disclosure were analyzed by the p-ACC(Ser79) ELISA to determine the effect of the compounds on cellular AMPK activity.
# AMPK(α2) = AMPK(α2) (Homo sapiens (Human), UniProt P54646); experiment: LANCE Eu TR-FRET recombinant kinase assay, AMPK(α2); format: biochemical; conditions: mean±S.D. (n=3); ATP 20 μM
# Sequence of AMPK(α2) (P54646 whole entry, looked up): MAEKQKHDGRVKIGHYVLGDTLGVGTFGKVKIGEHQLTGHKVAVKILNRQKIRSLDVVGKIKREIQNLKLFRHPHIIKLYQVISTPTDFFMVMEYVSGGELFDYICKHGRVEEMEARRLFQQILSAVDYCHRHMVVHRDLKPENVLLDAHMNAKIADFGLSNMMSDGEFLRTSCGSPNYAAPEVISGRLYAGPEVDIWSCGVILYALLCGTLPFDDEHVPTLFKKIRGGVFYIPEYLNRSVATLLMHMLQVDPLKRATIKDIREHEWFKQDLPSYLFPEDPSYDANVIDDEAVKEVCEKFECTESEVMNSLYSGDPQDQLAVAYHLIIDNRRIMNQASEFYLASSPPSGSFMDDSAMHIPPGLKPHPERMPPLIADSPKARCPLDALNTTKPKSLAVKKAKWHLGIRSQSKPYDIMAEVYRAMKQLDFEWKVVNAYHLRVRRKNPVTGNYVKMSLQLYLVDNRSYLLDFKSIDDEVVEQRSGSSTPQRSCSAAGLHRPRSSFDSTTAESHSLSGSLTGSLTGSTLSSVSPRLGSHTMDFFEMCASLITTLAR
# Sequence of AMPK(α2) (Q9Y478 whole entry partner, looked up): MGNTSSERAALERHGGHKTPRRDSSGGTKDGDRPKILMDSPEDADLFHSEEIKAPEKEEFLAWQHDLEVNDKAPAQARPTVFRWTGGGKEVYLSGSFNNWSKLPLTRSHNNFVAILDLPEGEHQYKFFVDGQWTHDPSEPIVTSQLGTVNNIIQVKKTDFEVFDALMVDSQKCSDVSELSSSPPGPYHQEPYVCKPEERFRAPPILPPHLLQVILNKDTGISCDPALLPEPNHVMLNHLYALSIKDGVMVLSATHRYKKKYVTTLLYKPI
# Sequence of AMPK(α2) (P54619 whole entry partner, looked up): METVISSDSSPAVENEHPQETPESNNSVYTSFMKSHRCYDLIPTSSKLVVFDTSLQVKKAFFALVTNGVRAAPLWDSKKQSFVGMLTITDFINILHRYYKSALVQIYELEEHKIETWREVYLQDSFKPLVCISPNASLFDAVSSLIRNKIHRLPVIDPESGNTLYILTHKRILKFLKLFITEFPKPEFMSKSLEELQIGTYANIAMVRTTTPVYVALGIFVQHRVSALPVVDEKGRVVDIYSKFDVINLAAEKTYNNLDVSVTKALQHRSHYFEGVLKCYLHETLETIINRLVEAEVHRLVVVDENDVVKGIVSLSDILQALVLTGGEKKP
# Procedure: (§1) Assays were performed at 25° C. in a reaction mixture consisting of 2.5 μL serially diluted inhibitor solution, 2.5 μL kinase, 2.5 μL ATP and 2.5 μL substrate. Reagents were incubated for 1 hr before the reaction was halted through the addition of EDTA (10 mM) after which Eu anti-phospho-CREB (Ser133) antibody (PerkinElmer) was added at a final concentration of 2 nM for 1 hr. […] (n=3)).
# AMPKα1 = AMPKα1 (Homo sapiens (Human), UniProt Q13131); experiment: LANCE Eu TR-FRET recombinant kinase assay, AMPK(α1); format: biochemical
# Sequence of AMPKα1 (Q13131 whole entry, looked up): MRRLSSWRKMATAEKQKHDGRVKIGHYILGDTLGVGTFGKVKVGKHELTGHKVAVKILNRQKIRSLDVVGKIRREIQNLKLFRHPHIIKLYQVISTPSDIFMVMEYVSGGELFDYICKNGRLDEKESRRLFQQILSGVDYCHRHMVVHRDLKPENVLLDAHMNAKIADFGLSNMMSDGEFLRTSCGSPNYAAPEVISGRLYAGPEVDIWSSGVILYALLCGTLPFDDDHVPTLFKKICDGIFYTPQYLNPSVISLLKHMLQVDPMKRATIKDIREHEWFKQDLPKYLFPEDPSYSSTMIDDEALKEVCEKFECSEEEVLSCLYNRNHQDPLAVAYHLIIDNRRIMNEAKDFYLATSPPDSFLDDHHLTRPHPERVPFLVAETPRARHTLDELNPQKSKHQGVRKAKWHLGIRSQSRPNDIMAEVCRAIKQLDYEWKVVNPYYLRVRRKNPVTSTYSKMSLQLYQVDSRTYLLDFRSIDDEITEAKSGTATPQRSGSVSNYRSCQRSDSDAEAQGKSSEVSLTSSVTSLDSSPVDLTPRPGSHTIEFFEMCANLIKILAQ
# Sequence of AMPKα1 (Q9Y478 whole entry partner, looked up): as the sequence (Q9Y478 whole entry partner, looked up) above
# Sequence of AMPKα1 (P54619 whole entry partner, looked up): as the sequence (P54619 whole entry partner, looked up) above
# Procedure: as §1
# K562 cells [1] = experiment: MTS cell viability assay in K562 cells; format: cell-based; conditions: Homo sapiens; K562, RPMI-1640; Table 2 head prints 24 h, method and FIG. 3A legend 72 hours
# Procedure: (§2) The cells were incubated with inhibitors for 24 hours, before the plates were equilibrated to room temperature and 100 μL CellTiter-Glo reagent was added. […] Luminescent signal was plotted against the inhibitor log-dose and evaluated by a non-linear regression to determine half-maximal effect concentration (EC50) values, where possible.
# An MTS assay was utilized to assess the effect of inhibitors on K562 viability.
# K562 cells [2] = experiment: CellTox green cellular toxicity assay in K562 cells (glucose-free media); format: cell-based; conditions: Homo sapiens
# Text: Fluorescence was plotted against inhibitor log-dose and evaluated by a non-linear regression to determine half-maximal effect concentration (EC50) values, where possible.
# (§3) In order to increase the reliance of the cells on AMPK function, assays were needed that could be performed under glucose-free conditions. Therefore in order to elucidate the mechanism of action of the AMPK inhibitors, a CellTiter-Glo cell viability assay (FIG. 3B), which provide a readout proportional to ATP concentration, and thus, cellular viability, as well as a CellTox green cellular toxicity assay (FIG. 3C and FIG. 3D), which contain a dye that fluoresces upon DNA-binding in cells with impraied membrane integrity due to cytotoxicity were performed in K562 cells grown in glucose-free media. The results are summarized in Table 2 (values are the mean±S.D. (n=3)).
# KDR = KDR (Homo sapiens (Human), UniProt P35968); experiment: LanthaScreen Eu TR-FRET KDR competitive binding assay
# Sequence of KDR (P35968 20-1356): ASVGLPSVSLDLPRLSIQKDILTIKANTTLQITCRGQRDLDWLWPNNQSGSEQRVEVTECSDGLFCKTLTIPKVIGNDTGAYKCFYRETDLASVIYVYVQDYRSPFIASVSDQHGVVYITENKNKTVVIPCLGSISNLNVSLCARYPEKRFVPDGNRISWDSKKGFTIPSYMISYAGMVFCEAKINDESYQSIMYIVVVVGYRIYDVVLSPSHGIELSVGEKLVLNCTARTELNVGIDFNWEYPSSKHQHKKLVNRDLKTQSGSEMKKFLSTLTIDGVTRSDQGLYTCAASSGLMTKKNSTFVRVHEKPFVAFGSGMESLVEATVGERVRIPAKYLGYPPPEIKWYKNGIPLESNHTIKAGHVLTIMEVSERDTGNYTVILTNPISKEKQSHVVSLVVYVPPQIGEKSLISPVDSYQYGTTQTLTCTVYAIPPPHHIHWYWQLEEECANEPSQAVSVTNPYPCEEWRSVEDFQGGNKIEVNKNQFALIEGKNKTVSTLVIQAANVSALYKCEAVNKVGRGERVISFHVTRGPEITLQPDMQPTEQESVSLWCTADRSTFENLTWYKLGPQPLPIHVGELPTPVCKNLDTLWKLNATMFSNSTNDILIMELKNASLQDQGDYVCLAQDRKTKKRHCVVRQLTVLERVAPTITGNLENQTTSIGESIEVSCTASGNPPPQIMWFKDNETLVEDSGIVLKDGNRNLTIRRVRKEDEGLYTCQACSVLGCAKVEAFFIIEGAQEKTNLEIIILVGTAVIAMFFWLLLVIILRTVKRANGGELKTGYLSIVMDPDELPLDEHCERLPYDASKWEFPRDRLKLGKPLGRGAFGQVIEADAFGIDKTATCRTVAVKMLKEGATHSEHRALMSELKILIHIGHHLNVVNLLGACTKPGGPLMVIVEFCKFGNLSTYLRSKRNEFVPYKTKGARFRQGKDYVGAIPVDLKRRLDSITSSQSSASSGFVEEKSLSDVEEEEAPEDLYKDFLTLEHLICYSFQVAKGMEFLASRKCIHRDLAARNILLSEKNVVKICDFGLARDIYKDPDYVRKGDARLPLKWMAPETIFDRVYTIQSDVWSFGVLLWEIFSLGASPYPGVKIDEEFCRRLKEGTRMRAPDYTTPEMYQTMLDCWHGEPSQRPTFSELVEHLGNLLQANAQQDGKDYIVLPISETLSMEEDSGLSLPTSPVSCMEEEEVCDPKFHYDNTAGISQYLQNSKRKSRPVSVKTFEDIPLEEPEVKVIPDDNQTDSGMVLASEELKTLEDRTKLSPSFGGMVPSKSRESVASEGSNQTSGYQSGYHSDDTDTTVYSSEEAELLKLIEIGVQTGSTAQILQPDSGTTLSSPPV
# K562 cells [3] = experiment: CellTiter-Glo cell viability assay in K562 cells (glucose-free media); format: cell-based; conditions: Homo sapiens, read-out: EC50 CellTiter Glo 24 h
# Procedure: as §2, §3
# [4] = mean±S.D. (n=3), ATP 8 μM, read-out: IC50 (nM) AMPK(α1)
# [5] = read-out: EC50 CellTox Green 48 h, 48 h
# [6] = read-out: IC50 (nM) KDR, mean±S.D. (n=3), competitive binding
# [7] = read-out: EC50 CellTox Green 24 h, 24 h
Structure (SMILES),IC50 (AMPK(α2)),IC50 (AMPKα1; [4]),IC50 (KDR; [6]),EC50 (K562 cells [2]; [5]),further results
CCN(CC)CCNC(=O)c1c(C)[nH]c(/C=C2\C(=O)Nc3ccc(CCO)cc32)c1C [Compound 65],,,,,p-ACC level reduction across concentration range compared with sunitinib (cellular AMPK): improvements in cellular AMPK inhibition over sunitinib at all concentrations apart from 50 μM
CCN(CC)CCNC(=O)c1c(C)[nH]c(/C=C2\C(=O)Nc3ccc(CCC(N)=O)cc32)c1C [Compound 67],,,,,p-ACC level reduction across concentration range compared with sunitinib (cellular AMPK): significant improvements in p-ACC level reduction with respect to sunitinib at both 3.125 mM and 12.5 mM
"Cc1[nH]c(/C=C2\C(=O)Nc3ccc(F)cc32)c(C)c1C(=O)NCCN [Compound No. 4, (Z)—N-(2-Aminoethyl)-5-((5-fluoro-2-oxoindolin-3-ylidene)methyl)-2,4-dimethyl-1H-pyrrole-3-carboxamide]",141 ± 33 nM,393 ± 27 nM,,,
"CCN(CC)CCNC(=O)c1c(C)[nH]c(/C=C2\C(=O)Nc3ccc(CCOC)cc32)c1C [Compound No. 9, (Z)—N-(2-(Diethylamino)ethyl)-5-((5-(2-methoxyethyl)-2-oxoindolin-3-ylidene)methyl)-2,4-dimethyl-1H-pyrrole-3-carboxamide]",96.6 ± 4.3 nM,296 ± 16 nM,,,
"CCN(CC)CCNC(=O)c1c(C)[nH]c(/C=C2\C(=O)Nc3ccc(CCOC(C)=O)cc32)c1C [Compound No. 11, (Z)-2-(3-((4-((2-(Diethylamino)ethyl)carbamoyl)-3,5-dimethyl-1H-pyrrol-2-yl)methylene)-2-oxoindolin-5-yl)ethyl acetate]",111 ± 21 nM,418 ± 45 nM,,,
"CCN(CC)CCNC(=O)c1c(C)[nH]c(/C=C2\C(=O)Nc3ccc(CCN(C)C)cc32)c1C [Compound No. 12, (Z)—N-(2-(Diethylamino)ethyl)-5-((5-(2-(dimethylamino)ethyl)-2-oxoindolin-3-ylidene)methyl)-2,4-dimethyl-1H-pyrrole-3-carboxamide]",154 ± 53 nM,,,,"IC50 (AMPKα1; text value in μM, read-out: AMPKα1 IC50): 2100 ± 440 nM"
"CCN(CC)CCNC(=O)c1c(C)[nH]c(/C=C2\C(=O)Nc3ccc(CCN=[N+]=[N-])cc32)c1C [Compound No. 13, (Z)-5-((5-(2-Azidoethyl)-2-oxoindolin-3-ylidene)methyl)-N-(2-(diethylamino)ethyl)-2,4-dimethyl-1H-pyrrole-3-carboxamide]",101 ± 20 nM,139 ± 13 nM,,4810 ± 80 nM,"EC50 (K562 cells [3]): 4860 ± 160 nM; EC50 (K562 cells [1]): 3830 ± 50 nM; IC50 (KDR; read-out: KDR IC50, values in μM): 2260 ± 110 nM"
"CCN(CC)CCNC(=O)c1c(C)[nH]c(/C=C2\C(=O)Nc3ccc(CCNC(C)=O)cc32)c1C [Compound No. 14, (Z)-5-((5-(2-Acetamidoethyl)-2-oxoindolin-3-ylidene)methyl)-N-(2-(diethylamino)ethyl)-2,4-dimethyl-1H-pyrrole-3-carboxamide]",108 ± 17 nM,184 ± 11 nM,2160 ± 101 nM,,
"CCN(CC)CCNC(=O)c1c(C)[nH]c(/C=C2\C(=O)Nc3ccc(CNC(N)=O)cc32)c1C [Compound No. 18, (Z)—N-(2-(Diethylamino)ethyl)-2,4-dimethyl-5-((2-oxo-5-(ureidomethyl)indolin-3-ylidene)methyl)-1H-pyrrole-3-carboxamide]",83.6 ± 7 nM,205 ± 52 nM,,,
"CCN(CC)CCNC(=O)c1c(C)[nH]c(/C=C2\C(=O)Nc3ccccc32)c1C [Compound No. 19, (Z)—N-(2-(Diethylamino)ethyl)-2,4-dimethyl-5-((2-oxoindolin-3-ylidene)methyl)-1H-pyrrole-3-carboxamide]",88.5 ± 7.1 nM,246 ± 11 nM,,,
"CCc1ccc2c(c1)NC(=O)/C2=C\c1[nH]c(C)c(C(=O)NCCN(CC)CC)c1C [Compound No. 24, (Z)—N-(2-(Diethylamino)ethyl)-5-((6-ethyl-2-oxoindolin-3-ylidene)methyl)-2,4-dimethyl-1H-pyrrole-3-carboxamide]",,348 ± 71 nM,,,
"CCN(CC)CCNC(=O)c1c(C)[nH]c(/C=C2\C(=O)Nc3cc(C(C)C)ccc32)c1C [Compound No. 25, N-(2-(Diethylamino)ethyl)-5-((6-isopropyl-2-oxoindolin-3-ylidene)methyl)-2,4-dimethyl-1H-pyrrole-3-carboxamide]",,,,,inhibition at 20 µM (AMPKα1; read-out: AMPK(α1) % inhibition at 20 μM): 70%

# Further compounds by falling IC50 (AMPK(α2)), results first:
IC50 (AMPK(α2)),IC50 (AMPKα1; [4]),IC50 (KDR; [6]),Structure (SMILES),EC50 (K562 cells [2]; [5]),further results
82.5 ± 27.9 nM,208 ± 33 nM,,"CCN(CC)CCNC(=O)c1c(C)[nH]c(/C=C2\C(=O)Nc3cc(Br)ccc32)c1C [Compound No. 22, (Z)-5-((6-Bromo-2-oxoindolin-3-ylidene)methyl)-N-(2-(diethylamino)ethyl)-2,4-dimethyl-1H-pyrrole-3-carboxamide]",,
74.8 ± 3.1 nM,221 ± 31 nM,,"Cc1[nH]c(/C=C2\C(=O)Nc3ccc(F)cc32)c(C)c1C(=O)NCCCN(C)C [Compound No. 7, (Z)—N-(3-(Dimethylamino)propyl)-5-((5-fluoro-2-oxoindolin-3-ylidene)methyl)-2,4-dimethyl-1H-pyrrole-3-carboxamide]",,
65.1 ± 12.3 nM,217 ± 37 nM,206 ± 7 nM,"CCN(CC)CCNC(=O)c1c(C)[nH]c(/C=C2\C(=O)Nc3cc(Cl)ccc32)c1C [Compound No. 21, (Z)-5-((6-Chloro-2-oxoindolin-3-ylidene)methyl)-N-(2-(diethylamino)ethyl)-2,4-dimethyl-1H-pyrrole-3-carboxamide]",4180 ± 410 nM,EC50 (K562 cells [3]): 3830 ± 460 nM; EC50 (K562 cells [2]; [7]): 5240 ± 220 nM
61.4 ± 12.7 nM,180 ± 24 nM,505 ± 18 nM,CCNCCNC(=O)c1c(C)[nH]c(/C=C2\C(=O)Nc3ccc(F)cc32)c1C [Compound No. 6],11900 ± 1580 nM,EC50 (K562 cells [3]): 15500 ± 480 nM; EC50 (K562 cells [1]): 13600 ± 1690 nM; EC50 (K562 cells [2]; [7]): 12890 ± 110 nM
50.4 ± 17.9 nM,136 ± 16 nM,493 ± 24 nM,"Cc1[nH]c(/C=C2\C(=O)Nc3ccc(F)cc32)c(C)c1C(=O)NCCN(C)C [Compound No. 5, (Z)—N-(2-(Dimethylamino)ethyl)-5-((5-fluoro-2-oxoindolin-3-ylidene)methyl)-2,4-dimethyl-1H-pyrrole-3-carboxamide]",13030 ± 40 nM,EC50 (K562 cells [1]): 12600 ± 930 nM
49.4 ± 22.1 nM,240 ± 37 nM,189 ± 7 nM,"CCN(CC)CCNC(=O)c1c(C)[nH]c(/C=C2\C(=O)Nc3cc(F)ccc32)c1C [Compound No. 20, (Z)—N-(2-(Diethylamino)ethyl)-5-((6-fluoro-2-oxoindolin-3-ylidene)methyl)-2,4-dimethyl-1H-pyrrole-3-carboxamide]",7150 ± 350 nM,EC50 (K562 cells [1]): 2850 ± 220 nM
38.6 ± 10.6 nM,152 ± 22 nM,480 ± 52 nM,"CCN(CC)CCCNC(=O)c1c(C)[nH]c(/C=C2\C(=O)Nc3ccc(F)cc32)c1C [Compound No. 8, (Z)—N-(3-(Diethylamino)propyl)-5-((5-fluoro-2-oxoindolin-3-ylidene)methyl)-2,4-dimethyl-1H-pyrrole-3-carboxamide]",13270 ± 80 nM,EC50 (K562 cells [3]): 18000 ± 320 nM; EC50 (K562 cells [1]): 13500 ± 590 nM
16.2 ± 7.4 nM,93 ± 8 nM,391 ± 22 nM,"CCN(CC)CCNC(=O)c1c(C)[nH]c(/C=C2\C(=O)Nc3ccc(C#N)cc32)c1C [Compound No. 17, (Z)-5-((5-Cyano-2-oxoindolin-3-ylidene)methyl)-N-(2-(diethylamino)ethyl)-2,4-dimethyl-1H-pyrrole-3-carboxamide]",13600 ± 350 nM,EC50 (K562 cells [3]): 19900 ± 1210 nM
